{
  "source": "ChEMBL document CHEMBL1136500",
  "about": "“1,3-dihydrobenzo[c]furan nucleoside analogues: additional studies of the thymine derivative” (Bioorg Med Chem Lett, 2003)",
  "key": {"[1]": {"molecular_target": "Human immunodeficiency virus type 1 reverse transcriptase (Human immunodeficiency virus 1) (UniProt Q72547)", "experiment": "Inhibitory activity against human immunodeficiency virus-1 reverse transcriptase (HIV-1 RT)"}, "[2]": {"experiment": "Half life at pH 7.3", "type": "ADME", "settings": "buffer"}, "[3]": {"experiment": "Partition coefficient (logP)", "type": "physicochemical", "settings": "octanol/water"}, "[4]": {"experiment": "Half life at pH 1.2", "type": "ADME", "settings": "buffer"}, "[5]": {"experiment": "Half life at pH 2.0", "type": "ADME", "settings": "buffer"}, "[6]": {"molecular_target": "Human immunodeficiency virus type 1 reverse transcriptase (Human immunodeficiency virus 1) (UniProt Q72547)", "experiment": "Inhibitory activity against human immunodeficiency virus-1 reverse transcriptase (HIV-1 RT) at a concentration up to 100 uM; IA-Inactive"}, "[7]": {"molecular_target": "Human immunodeficiency virus type 1 reverse transcriptase (Human immunodeficiency virus 1) (UniProt Q72547)", "experiment": "Inhibitory activity against human immunodeficiency virus-1 reverse transcriptase (HIV-1 RT) at a concentration up to 10 uM; IA=Inactive"}},
  "note": "The source made the active and inactive calls. No cut-off for these calls is given here.",
  "data": [
    {"compound": "Cc1cn([C@H]2C=C[C@@H](CO)O2)c(=O)[nH]c1=O", "note": "[STAVUDINE]", "values": [
      {"measurement": "IC90", "setting": "[1]", "result": 100, "unit": "nM"},
      {"measurement": "half-life", "setting": "[2]", "result": 6, "unit": "days"},
      {"measurement": "logP", "setting": "[3]", "result": -0.77},
      {"measurement": "half-life", "setting": "[4]", "result": 3, "unit": "days"},
      {"measurement": "half-life", "setting": "[5]", "result": 5, "unit": "days"}
    ]},
    {"compound": "Cc1cn([C@@H]2O[C@H](COP(=O)(O)OP(=O)(O)OP(=O)(O)O)c3ccccc32)c(=O)[nH]c1=O", "values": [
      {"measurement": "Activity", "setting": "[6]", "result": "inactive"}
    ]},
    {"compound": "Cc1cn([C@@H]2O[C@H](CO)c3ccccc32)c(=O)[nH]c1=O", "values": [
      {"measurement": "half-life", "setting": "[2]", "result": 34, "unit": "days"},
      {"measurement": "logP", "setting": "[3]", "result": 0.55},
      {"measurement": "half-life", "setting": "[4]", "result": 18, "unit": "days"},
      {"measurement": "Activity", "setting": "[7]", "result": "inactive"},
      {"measurement": "half-life", "setting": "[5]", "result": 31, "unit": "days"}
    ]}
  ]
}
